This is an account of results in PubChem BioAssay (NCI).

Each structure is given as a SMILES string.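 These data come from cells grown in 96-well plates and exposed to compound for 48 hours at five concentrations. The concentration for 50% growth inhibition is given as GI50. TGI denotes the concentration required for complete inhibition of growth.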

Holding throughout (assay): inhibition of tumour cell growth, NCI panel, 48 h
For test [1], the system named is SF-295 CNS.
The test system of test [2] is SK-MEL-5 melanoma.
Test [3] has as its system UO-31 renal.
In test [4] the test system is LOX IMVI melanoma.
In test [5] the test system is COLO 205 colon.
The test system of test [6] is SW-620 colon.
Test [7] deals with UACC-257 melanoma.
Test [8] relates to NCI-H23 lung.
Test [9] concerns NCI-H522 lung.
Test [10] deals with OVCAR-8 ovarian.

On to `O=C(C(O)c1cn(Cc2ccccc2)c2ccccc12)N1CCCCC1` (stereo not drawn), for which the TGI in test [1], in test [2], in [3], in test [4], in test [5] and in test [6] was above 100 µM throughout. For the same molecule, the TGI was above 100 µM in test [7], above 10 µM in test [8], above 100 µM in [9] and above 100 µM in [10].
On to `CCOC(=O)CCC(=O)C1c2cccc(O)c2C(=O)c2c(O)cccc21`, for which the TGI in test [1] was 1.95 µM; in [2] it was 1.4 µM; in test [3], 1.48 µM; in [4], 1.89 µM; in test [5] it was 3.95 µM; in test [6], 2.24 µM. The TGI was 3.3 µM in [7], 3.09 µM in [8], 1.46 µM in test [9] and 3.4 µM in test [10].
In the case of `CCOc1ccc(/C=C/C(=O)c2ccccc2)cc1`, the GI50 in test [1] was 16.8 µM; in test [2], 17.1 µM; in [3] it was 14.1 µM; in test [4], 11.9 µM; in [5], 18 µM; in test [6] it was 7.73 µM. Also, the GI50 in test [7] is 16.1 µM; in test [8] it was 16.9 µM; in test [9] it was 15.4 µM; in test [10], 14.8 µM. Moreover, the TGI in [1] came to 35 µM; in test [2] it was 31.2 µM; in [3] it was 28 µM; in test [4], 26.5 µM; in test [5] it was 32.4 µM; in test [6], 21.1 µM. Also, the TGI in [7] was 33.1 µM; in [8] it was 37.2 µM; in [9], 34.9 µM; in test [10], 34.6 µM.
Regarding `COc1ccc2c(c1)sc1nc(-c3ccccc3)c(-c3ccsc3)n12`, the GI50 is 3.06 µM in [1]; 3.34 µM in test [2]; 6.03 µM in test [3]; 5.25 µM in test [4]; 2.26 µM in [5]; 3.84 µM in [6]. Moreover, the GI50 in test [7] is above 100 µM; in [8], 4 µM; in test [9], 2.99 µM; in test [10] it was 5.95 µM. Further, the TGI in [1] was above 100 µM; in [2], 47.4 µM; in test [3] it was above 100 µM; in test [4] it was above 100 µM; in [5], 6.38 µM; in test [6], above 100 µM. In addition, the TGI in test [7] is above 100 µM; in test [8], above 100 µM; in test [9], 36.8 µM; in test [10] it was above 100 µM.
With `Cc1ccc(C(=O)c2oc3ccc4c(C)cc(=O)oc4c3c2C)cc1`, the GI50 in test [1] is 2.19 µM; in test [2] it was 2.69 µM; in [3] it was 11.4 µM; in [4] it was 2.45 µM; in test [5] it was 4.66 µM; in test [6], 8.56 µM. Besides, the GI50 in test [7] is 35.9 µM; in [8], 27.3 µM; in test [9], 9.12 µM; in [10], 6.08 µM. In addition, the TGI in test [1] was 30.2 µM; in [2] it was above 100 µM; in [3], above 100 µM; in test [4] it was 19.1 µM; in test [5] it was above 100 µM; in [6], above 100 µM. Further, the TGI in [7] was above 100 µM; in test [8], above 100 µM; in test [9] it was 55.2 µM; in test [10], above 100 µM.
For the molecule `N#CCCc1nc2ccc(Br)cc2c(=O)n1CCO`, the TGI in test [1], in [2], in [3], in [4], in test [5] and in [6] was above 100 µM each time. Moreover, the TGI in test [7], in [8], in [9] and in [10] was above 100 µM in each case.
Consider `COC(=O)c1c(-c2ccccc2)cc2c3cc(-c4ccccc4)c(C(=O)OC)n3c3ccccc3n12`, for which the TGI in test [1], in test [2], in test [3], in [4], in test [5] and in test [6] was above 100 µM throughout. Also, the TGI in test [7], in test [8], in test [9] and in test [10] was above 100 µM throughout.
For the molecule `CC(C)c1ccc(Cc2cnc(NC(=O)c3cc(Br)cs3)s2)cc1`, the GI50 in test [1] is 2 µM; in [2], 1.9 µM; in test [3], 3.8 µM; in test [4], 5.35 µM; in test [5], 2.92 µM; in test [6], 2.98 µM. Besides, the GI50 is 7.6 µM in [7], 3.45 µM in test [8], 1.48 µM in [9] and 4.4 µM in test [10]. For the same molecule, the TGI in test [1] was 19.6 µM; in [2], above 100 µM; in test [3], above 100 µM; in test [4], above 100 µM; in test [5], 15 µM; in test [6], above 100 µM. Moreover, the TGI in test [7] was above 100 µM; in [8], above 100 µM; in test [9] it was 5.76 µM; in test [10], above 100 µM.
On to `C=CC(=O)N1CCCC(n2nc(-c3ccc(Oc4ccccc4)cc3)c3c(N)ncnc32)C1` (stereo not drawn), for which the GI50 in test [1] is 7.71 µM; in [2], 6.55 µM; in [3], 1.4 µM; in test [4], 4.26 µM; in test [5], 14.1 µM; in test [6] it was 16.1 µM. Moreover, the GI50 was 6.82 µM in test [7], 12.1 µM in [8], 0.0578 µM in test [9] and 6.56 µM in [10]. The TGI is 23.8 µM in test [1]; 19.3 µM in [2]; 13.5 µM in test [3]; 19.1 µM in [4]; 28.5 µM in test [5]; 33.4 µM in [6]. Besides, the TGI in test [7] stood at 20.5 µM; in [8], 28.7 µM; in [9] it was 9.31 µM; in [10], 20.4 µM.
Take `O=C(Nc1ccc(Cl)cc1)Nc1ccc(Cl)c(Cl)c1`: the GI50 was 4.02 µM in test [1]; 1.72 µM in test [2]; 2.32 µM in test [3]; 3.39 µM in test [4]; 1.85 µM in test [5]; 3.95 µM in test [6]. The GI50 was 3.76 µM in test [7], 3.34 µM in [8], 4.15 µM in test [9] and 5.02 µM in test [10]. Further, the TGI in test [1] was above 100 µM; in [2], 3.42 µM; in test [3], 10.1 µM; in [4], above 100 µM; in test [5], 3.42 µM; in [6] it was above 100 µM. The TGI in test [7], in [8], in [9] and in test [10] was above 100 µM in each case.
For `Oc1ccc(Br)cc1Sc1cc(Br)ccc1O`, the GI50 in [1] is 14.4 µM; in test [2] it was 3.16 µM; in test [3] it was 5 µM; in [4] it was 4.89 µM; in test [5], 17.8 µM; in [6] it was 9.29 µM. The GI50 in [7] is 5.2 µM; in test [8], 3.14 µM; in test [9], 2.69 µM; in [10] it was 5.89 µM. For the same molecule, the TGI in [1] was 33.5 µM; in test [2] it was 11.6 µM; in test [3], 19.6 µM; in test [4] it was 17.6 µM; in test [5], 34.9 µM; in test [6], 25.3 µM. The TGI in [7] was 17.7 µM; in test [8] it was 11.8 µM; in test [9], 8.46 µM; in test [10], 24.7 µM.
`COc1cc(OC)c(/C=C/c2ccc3ccccc3[n+]2C)c(OC)c1`: the GI50 is 0.549 µM in [1]; 0.567 µM in test [2]; 6.14 µM in test [3]; 1.33 µM in test [4]; 0.208 µM in test [5]; 0.902 µM in [6]. The GI50 in test [7] was 0.49 µM; in test [8], 0.686 µM; in test [9] it was 1.14 µM; in test [10], 0.507 µM. Besides, the TGI in [1] was 4.25 µM; in test [2], 1.95 µM; in test [3], 54 µM; in test [4], 3.99 µM; in test [5], 0.465 µM; in test [6] it was 11.3 µM. Also, the TGI came to 3.19 µM in [7], 12.2 µM in test [8], 6.25 µM in test [9] and 6.48 µM in test [10].
In the case of `C=CCc1cc2cccc(OC)c2oc1=O`, the TGI in test [1] is above 100 µM; in test [2], above 100 µM; in [3] it was 69.2 µM; in test [4] it was above 100 µM; in [5] it was above 100 µM; in test [6] it was above 100 µM. For the same molecule, the TGI in test [7], in test [8], in test [9] and in test [10] was above 100 µM each time.
As to `CC(C)=CC(C(O)c1ccccc1)S(=O)(=O)c1nccn1C` (stereo not drawn), the TGI in test [1], in [2], in [3], in test [4], in [5] and in test [6] was above 100 µM each time. Also, the TGI in test [7], in test [8], in test [9] and in test [10] was above 100 µM each time.
`CN(C)CCNc1nc2ccccc2c2c1c1c(n2Cc2ccccc2)-c2ccccc2C1=O`: the GI50 in test [1] was 9.33 µM; in test [2], 15.8 µM; in test [3] it was 14.3 µM; in test [4] it was 11.8 µM; in test [5], 16.6 µM; in [6] it was 7.96 µM. For the same molecule, the GI50 in test [7] was 19.9 µM; in [8], 14.8 µM; in [9], 11 µM; in test [10], 6.14 µM. Also, the TGI worked out at 24.9 µM in test [1]; 30.9 µM in test [2]; 35.4 µM in test [3]; 26.1 µM in test [4]; 65.3 µM in test [5]; 24 µM in test [6]. Moreover, the TGI stood at 42.6 µM in test [7], 39.7 µM in [8], 35.3 µM in test [9] and 52.2 µM in test [10].
On to `O=C(Nc1ccccc1C(F)(F)F)c1cccc(NC2=C(Cl)C(=O)N(Cc3ccccc3)C2=O)c1`, for which the GI50 is above 19.9 µM in test [1]; 19.8 µM in test [3]; 5.87 µM in [4]; 39.4 µM in test [5]; 22 µM in [6]; 11.2 µM in test [7]. The results for the GI50 in [8] and in [10] were 19.2 µM and 42.3 µM, respectively. The TGI in test [1] was above 45.5 µM; in test [2] it was 3.04 µM; in test [3] it was 97.8 µM; in test [4], 36.9 µM; in [5], above 100 µM; in [6], above 100 µM. For the same molecule, the TGI is 70.1 µM in [7], 62.5 µM in [8], 0.0672 µM in [9] and above 72.1 µM in test [10].
Turning to `O=C1c2cc(Br)ccc2-c2c1c1ccc([N+](=O)[O-])cc1c(=O)n2CCCCl`, the GI50 is below 0.0479 µM in [1]; 0.24 µM in test [2]; 0.0577 µM in test [3]; below 0.0248 µM in test [4]; 1.39 µM in [5]; 0.0533 µM in test [6]. For the same molecule, the GI50 was 0.287 µM in [7], 1.54 µM in test [8], 0.0636 µM in [9] and 0.293 µM in test [10]. In addition, the TGI is 3.56 µM in test [1]; 1.02 µM in test [2]; 3.43 µM in test [3]; 5.12 µM in test [4]; above 100 µM in test [5]; above 100 µM in test [6]. Moreover, the TGI came out at 2.85 µM in test [7], 8.04 µM in test [8], 5.38 µM in [9] and 17.4 µM in test [10].
On to `NC(=O)c1c[se]c(C2OC(CO)C(O)C2O)n1` (stereo not drawn), for which the TGI was above 49.8 µM in test [1]; above 100 µM in test [2]; above 100 µM in test [3]; above 100 µM in [4]; above 100 µM in [5]; above 100 µM in test [6]. Also, the TGI in test [7], in [8], in test [9] and in test [10] was above 100 µM in each case.
